The term IC50 denotes the point on the concentration scale where inhibition reaches its midpoint.

In the test the test system is HIV. The test can be described thus: MT4 assay (anti-HIV activity). It is filed as cell-based. The note with it: Human immunodeficiency virus 1, 96 h, antiviral HIV activity in HTLV-1 transformed cell line MT-4; luciferase read 96 hours later; 10 point dose response. Here is the method: Antiviral HIV activity and cytotoxicity values for compounds of the invention from Table 1 were measured in parallel in the HTLV-1 transformed cell line MT-4 based on the method previously described (Hazen et al., 2007, In vitro antiviral activity of the novel, tyrosyl-based human immunodeficiency virus (HIV) type 1 protease inhibitor brecanavir (GW640385) in combination with other antiretrovirals and against a panel of protease inhibitor-resistant HIV (Hazen et al., “In vitro antiviral activity of the novel, tyrosyl-based human immunodeficiency virus (HIV) type 1 protease inhibitor brecanavir (GW640385) in combination with other antiretrovirals and against a panel of protease inhibitor-resistant HIV”, Antimicrob. Agents Chemother. 2007, 51: 3147-3154; and Pauwels et al., “Sensitive and rapid assay on MT-4 cells for the detection of antiviral compounds against the AIDS virus”, J. of Virological Methods 1987, 16: 171-185).
Luciferase activity was measured 96 hours later by adding a cell titer glo (Promega, Madison, Wis.). Percent inhibition of cell protection data was plotted relative to no compound control. Under the same condition, cytotoxicity of the compounds was determined using cell titer Glo™ (Promega, Madison, Wis.). IC50s were determined from a 10 point dose response curve using 3-4-fold serial dilution for each compound, which spans a concentration range >1000 fold.
These values are plotted against the molar compound concentrations using the standard four parameter logistic equation:
y=((Vmax*x̂n)/(K̂n+x̂n))+Y2
Y2=minimum y n=slope factor
Vmax=maximum y x=compound concentration [M]
On to `Cc1ccc(-c2c(C)c3c(c(C)c2[C@H](OC(C)(C)C)C(=O)O)CCN(C2CCC[C@@H](C)C2)C3)cc1` (single isomer, unassigned) [Example 71], for which the IC50 is 14 nM.

Consider `Cc1ccc(-c2c(C)c3c(c(C)c2C(OC(C)(C)C)C(=O)O)CN(Cc2cccc(F)c2)CC3)cc1` (stereo not shown) [Example 1, 2-(tert-Butoxy)-2-(2-(3-fluorobenzyl)-5,8-dimethyl-6-(p-tolyl)-1,2,3,4-tetrahydroisoquinolin-7-yl)acetic Acid], for which the IC50 is 3250 nM.

For the compound `Cc1ccc(-c2c(C)c3c(c(C)c2C(OC(C)(C)C)C(=O)O)CN(C2CCCCC2)CC3)cc1` (stereo not shown) [Example 2, 2-(tert-Butoxy)-2-(2-cyclohexyl-5,8-dimethyl-6-(p-tolyl)-1,2,3,4-tetrahydroisoquinolin-7-yl)acetic Acid], the IC50 is 1720 nM.

With `Cc1ccc(-c2c(C)c3c(c(C)c2C(OC(C)(C)C)C(=O)O)CN(CC2CCCCC2)CC3)cc1` (stereo not shown) [Example 3, 2-(tert-Butoxy)-2-(2-(cyclohexylmethyl)-5,8-dimethyl-6-(p-tolyl)-1,2,3,4-tetrahydroisoquinolin-7-yl)acetic Acid], the half-inhibitory concentration (IC50) came to 3200 nM.

With `Cc1ccc(-c2c(C)c3c(c(C)c2C(OC(C)(C)C)C(=O)O)CN(C(=O)C2CCCCC2)CC3)cc1` (stereo not shown) [Example 4, 2-(tert-Butoxy)-2-(2-(cyclohexanecarbonyl)-5,8-dimethyl-6-(p-tolyl)-1,2,3,4-tetrahydroisoquinolin-7-yl)acetic Acid], the IC50 was determined as 323 nM.

In the case of `Cc1ccc(-c2c(C)c3c(c(C)c2C(OC(C)(C)C)C(=O)O)CN(C(=O)C(=O)N2CCCCC2)CC3)cc1` (stereo not shown) [Example 5, 2-(tert-Butoxy)-2-(5,8-dimethyl-2-(2-oxo-2-(piperidin-1-yl)acetyl)-6-(p-tolyl)-1,2,3,4-tetrahydroisoquinolin-7-yl)acetic Acid], the IC50 worked out at 157 nM.

Consider `Cc1ccc(-c2c(C)c3c(c(C)c2C(OC(C)(C)C)C(=O)O)CN(C(=O)c2cccc(F)c2)CC3)cc1` (stereo not shown) [Example 6], for which the IC50 was found to be 347 nM.

Turning to `Cc1ccc(-c2c(C)c3c(c(C)c2C(OC(C)(C)C)C(=O)O)CN(CC(=O)N2CCCCC2)CC3)cc1` (stereo not shown) [Example 7, 2-(tert-Butoxy)-2-(5,8-dimethyl-2-(2-oxo-2-(piperidin-1-yl)ethyl)-6-(p-tolyl)-1,2,3,4-tetrahydroisoquinolin-7-yl)acetic Acid], the IC50 is 418 nM.

As for `Cc1ccc(-c2c(C)c3c(c(C)c2C(OC(C)(C)C)C(=O)O)CN(c2ccccc2)CC3)cc1` (stereo not shown) [Example 8, 2-(tert-Butoxy)-2-(5,8-dimethyl-2-phenyl-6-(p-tolyl)-1,2,3,4-tetrahydroisoquinolin-7-yl)acetic Acid], the half-inhibitory concentration (IC50) stood at 6480 nM.

As for `Cc1ccc(-c2c(C)c3c(c(C)c2C(OC(C)(C)C)C(=O)O)CN(C(=O)N2CCCCC2)CC3)cc1` (stereo not shown) [Example 9, 2-(tert-Butoxy)-2-(5,8-dimethyl-2-(piperidine-1-carbonyl)-6-(p-tolyl)-1,2,3,4-tetrahydroisoquinolin-7-yl)acetic Acid], the IC50 amounted to 38 nM.

As for `Cc1ccc(-c2c(C)c3c(c(C)c2C(OC(C)(C)C)C(=O)O)CN(C(=O)NC2CCCCC2)CC3)cc1` (stereo not shown) [Example 10, 2-(tert-Butoxy)-2-(2-(cyclohexylcarbamoyl)-5,8-dimethyl-6-(p-tolyl)-1,2,3,4-tetrahydroisoquinolin-7-yl)acetic Acid], the 50% inhibitory concentration (IC50) worked out at 1480 nM.

For `Cc1ccc(-c2c(C)c3c(c(C)c2C(OC(C)(C)C)C(=O)O)CN(S(=O)(=O)c2cccc(F)c2)CC3)cc1` (stereo not shown) [Example 11, 2-(tert-Butoxy)-2-(2-((3-fluorophenyl)sulfonyl)-5,8-dimethyl-6-(p-tolyl)-1,2,3,4-tetrahydroisoquinolin-7-yl)acetic Acid], the IC50 is 817 nM.

As to `Cc1ccc(-c2c(C)c3c(c(C)c2[C@H](OC(C)(C)C)C(=O)O)CN(C(=O)N2CCCCC2)CC3)cc1` [Example 12, (S)-2-(tert-Butoxy)-2-(5,8-dimethyl-2-(piperidine-1-carbonyl)-6-(p-tolyl)-1,2,3,4-tetrahydroisoquinolin-7-yl)acetic Acid], the IC50 is 139 nM.

Regarding `Cc1ccc(-c2c(C)c3c(c(C)c2[C@H](OC(C)(C)C)C(=O)O)CN(C(=O)N2CCC(C)(C)CC2)CC3)cc1` [Example 13, (S)-2-(tert-Butoxy)-2-(2-(4,4-dimethylpiperidine-1-carbonyl)-5,8-dimethyl-6-(p-tolyl)-1,2,3,4-tetrahydroisoquinolin-7-yl)acetic Acid], the IC50 stood at 129 nM.

As for `Cc1ccc(-c2c(C)c3c(c(C)c2[C@H](OC(C)(C)C)C(=O)O)CN(C(=O)N2CCCC2)CC3)cc1` [Example 14, (S)-2-(tert-Butoxy)-2-(5,8-dimethyl-2-(pyrrolidine-1-carbonyl)-6-(p-tolyl)-1,2,3,4-tetrahydroisoquinolin-7-yl)acetic Acid], the IC50 was determined as 1110 nM.

Turning to `Cc1ccc(-c2c(C)c3c(c(C)c2[C@H](OC(C)(C)C)C(=O)O)CN(S(=O)(=O)N2CCC(C)(C)CC2)CC3)cc1` [Example 15, (S)-2-(tert-Butoxy)-2-(2-((4,4-dimethylpiperidin-1-yl)sulfonyl)-5,8-dimethyl-6-(p-tolyl)-1,2,3,4-tetrahydroisoquinolin-7-yl)acetic Acid], the IC50 came out at 113 nM.

In the case of `Cc1ccc(-c2c(C)c3c(c(C)c2[C@H](OC(C)(C)C)C(=O)O)CN(S(=O)(=O)N2CCCCC2)CC3)cc1` [Example 16, (S)-2-(tert-Butoxy)-2-(5,8-dimethyl-2-(piperidin-1-ylsulfonyl)-6-(p-tolyl)-1,2,3,4-tetrahydroisoquinolin-7-yl)acetic Acid], the IC50 was determined as 34 nM.

For `Cc1ccc(-c2c(C)c3c(c(C)c2[C@H](OC(C)(C)C)C(=O)O)CN(C(=O)OC(C)(C)C)CC3)cc1` [Example 17, (S)-2-(tert-Butoxy)-2-(2-(tert-butoxycarbonyl)-5,8-dimethyl-6-(p-tolyl)-1,2,3,4-tetrahydroisoquinolin-7-yl)acetic Acid], the half-inhibitory concentration (IC50) was 444 nM.

For `Cc1ccc(-c2c(C)c3c(c(C)c2[C@H](OC(C)(C)C)C(=O)O)CN(S(=O)(=O)CC2CCCCC2)CC3)cc1` [Example 18, (S)-2-(tert-Butoxy)-2-(2-((cyclohexylmethyl)sulfonyl)-5,8-dimethyl-6-(p-tolyl)-1,2,3,4-tetrahydroisoquinolin-7-yl)acetic Acid], the IC50 was 1180 nM.

As for `Cc1ccc(-c2c(C)c3c(c(C)c2[C@H](OC(C)(C)C)C(=O)O)CN(S(=O)(=O)C2CCCCC2)CC3)cc1` [Example 19, (S)-2-(tert-Butoxy)-2-(2-(cyclohexylsulfonyl)-5,8-dimethyl-6-(p-tolyl)-1,2,3,4-tetrahydroisoquinolin-7-yl)acetic Acid], the IC50 turned out to be 1450 nM.

Turning to `Cc1ccc(-c2c(C)c3c(c(C)c2[C@H](OC(C)(C)C)C(=O)O)CN(C(=O)CC(C)(C)C)CC3)cc1` [Example 20, (S)-2-(tert-Butoxy)-2-(2-(3,3-dimethylbutanoyl)-5,8-dimethyl-6-(p-tolyl)-1,2,3,4-tetrahydroisoquinolin-7-yl)acetic Acid], the IC50 is 119 nM.

On to `Cc1ccc(-c2c(C)c3c(c(C)c2C(OC(C)(C)C)C(=O)O)CCN(C2CCCCC2)C3)cc1` (stereo not shown) [Example 21, 2-(tert-Butoxy)-2-(2-cyclohexyl-5,8-dimethyl-7-(p-tolyl)-1,2,3,4-tetrahydroisoquinolin-6-yl)acetic Acid], for which the IC50 was 27 nM.

Source of the values: US20180334436A1 (VIIV HEALTHCARE UK LIMITED, priority 2015, published 2018).
